Source: patent US8633231B2, “Substituted imidazolones, compositions containing such compounds and methods of use” (Merck Sharp & Dohme Corp., priority 2010, dated 2014)

molecular target: Recombinant human glucagon receptor-expressing CHO cells (Homo sapiens (Human), UniProt P47871); assay: Inhibition of Glucagon-Stimulated Intracellular cAMP Assay; assay type: cell-based; conditions: stimulation with 300 pM glucagon; LANCE cAMP Kit
Description: Inhibition of Glucagon-Stimulated Intracellular cAMP Assay
Recombinant human glucagon receptor-expressing CHO cells were harvested using a non-enzymatic cell dissociation solution (GIBCO 2672), pelleted and resuspended in stimulation buffer (1×HBSS, 5 mM Hepes, 0.1% BSA, pH7.4 in the presence of proteinase inhibitor and phosphodiesterase inhibitors). The adenylate cyclase assay was constructed following the LANCE cAMP Kit (Perkin Elmer, AD0264) instructions. Briefly, cells were preincubated with anti-cAMP antibody and 12 points series diluted compound in stimulation buffer with a final concentration of 3% DMSO for 30 minutes prior to stimulation with 300 pM glucagon for 45 minutes. The reaction was stopped by incubating with the supplied detection buffer containing Europium chelate of the Eu-SA/Biotin-cAMP tracer for 20 hours. The assay was done as triplicates in a 384 well plate. Fluorescence at 665 nm was measured using PheraStar instruments. Basal activity (100% inhibition) was determined using the DMSO control and 0% inhibition was defined as cAMP stimulation produced by 300 pM glucagon. Standard cAMP concentrations were assayed concurrently for conversion of fluorescence signal to cAMP level. Data was analyzed using the software program Prism from GraphPad. IC50 values were calculated using non-linear regression analysis assuming single site competition.

Chain of Recombinant human glucagon receptor-expressing CHO cells (P47871 26-477): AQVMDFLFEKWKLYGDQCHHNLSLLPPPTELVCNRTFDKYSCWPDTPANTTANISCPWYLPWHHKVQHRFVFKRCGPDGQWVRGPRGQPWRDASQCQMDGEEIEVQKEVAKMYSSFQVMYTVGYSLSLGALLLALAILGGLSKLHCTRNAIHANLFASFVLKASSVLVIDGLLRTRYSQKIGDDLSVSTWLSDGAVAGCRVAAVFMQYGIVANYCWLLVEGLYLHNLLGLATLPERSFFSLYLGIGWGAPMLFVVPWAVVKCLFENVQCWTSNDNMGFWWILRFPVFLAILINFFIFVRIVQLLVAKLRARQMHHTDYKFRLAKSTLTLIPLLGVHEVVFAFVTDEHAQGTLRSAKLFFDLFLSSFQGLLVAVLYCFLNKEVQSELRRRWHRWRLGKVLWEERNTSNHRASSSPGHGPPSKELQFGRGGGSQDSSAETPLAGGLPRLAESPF

Row | IC50 | SMILES
1 | 5.9 µM | CC(C)(C)CC[C@H](c1ccc(C(=O)Nc2nn[nH]n2)cc1)N1C(=O)C(c2cccc(F)c2)=NC1(C)C [Example 9]
2 | 8.4 µM | CC(C)(C)CC[C@H](c1ccc(C(=O)NCc2nn[nH]n2)cc1)N1C(=O)C(c2cccc(F)c2)=NC1(C)C [Example 10]
3 | 1 µM | CCCC[C@H](c1ccc(C(=O)NCCC(=O)O)cc1)N1C(=O)C(c2ccc(-c3cc(Cl)cc(Cl)c3)cc2)=NC1(C)C [Example 18]
4 | 8.3 µM | CC1(C)N=C(c2ccc(OC(F)(F)F)cc2)C(=O)N1CCc1ccc(C(=O)NCCC(=O)O)cc1 [Example 16]
5 | 4.2 µM | CC(C)CC1(C)N=C(c2cc(Cl)cc(Cl)c2)C(=O)N1CCc1ccc(C(=O)NCCC(=O)O)cc1 (centres unmarked) [Example 13]
6 | 1.3 µM | CC(C)[C@H](c1ccc(C(=O)NCCC(=O)O)cc1)N1C(=O)C(c2cc(Cl)cc(Cl)c2)=NC1(C)C [Example 19]
7 | 5.1 µM | CC1(C2CCCCC2)N=C(c2ccc(OC(F)(F)F)cc2)C(=O)N1CCc1ccc(C(=O)NCCC(=O)O)cc1 (centres unmarked) [Example 14]
8 | 1.7 µM | CC1(C)N=C(c2cc(Cl)cc(Cl)c2)C(=O)N1CCc1ccc(C(=O)NCCC(=O)O)cc1 [Example 12]
9 | 2 µM | CCCC[C@H](c1ccc(C(=O)NCCC(=O)O)cc1)N1C(=O)C(c2cc(Cl)cc(Cl)c2)=NC1(C)C [Example 20]
10 | 3.5 µM | CC1(C2CCCCC2)NC(c2cccc(C(F)(F)F)c2)C(=O)N1CCc1ccc(C(=O)NCCC(=O)O)cc1 (centres unmarked) [Example 15]
11 | 1.7 µM | CC1(C2CCCCC2)N=C(c2cc(Cl)cc(Cl)c2)C(=O)N1CCc1ccc(C(=O)NCCC(=O)O)cc1 (centres unmarked) [Example 11]
12 | 1.7 µM | CC1(C)N=C(c2cc(Cl)cc(Cl)c2)C(=O)N1[C@@H](c1ccc(C(=O)NCCC(=O)O)cc1)C1CC1 [Example 17]

The next lines start with the compound.

Row | SMILES | IC50
13 | CC(C)CC1(C)N=C(c2cc(Cl)cc(Cl)c2)C(=O)N1[C@H](CCC(C)(C)C)c1ccc(C(=O)NCCC(=O)O)cc1 (some centres unmarked) [Example 7] | 0.6 µM
14 | CC(C)CC1(C)N=C(c2cc(Cl)cc(Cl)c2)C(=O)N1[C@H](CCC(C)(C)C)c1ccc(C(=O)NCc2nn[nH]n2)cc1 (some centres unmarked) [Example 4] | 1.1 µM
15 | CC(C)CC1(C)N=C(c2cc(Cl)cc(Cl)c2)C(=O)N1[C@H](CCC(C)(C)C)c1ccc(C(=O)Nc2nn[nH]n2)cc1 (some centres unmarked) [Example 5] | 5.1 µM
16 | CC(C)(C)CC[C@H](c1ccc(C(=O)NCc2nn[nH]n2)cc1)N1C(=O)C(c2cc(Cl)cc(Cl)c2)=NC1(C)C [Example 2] | 3.7 µM
17 | CC(C)(C)CC[C@H](c1ccc(C(=O)Nc2nn[nH]n2)cc1)N1C(=O)C(c2cc(Cl)cc(Cl)c2)=NC1(C)C [Example 3] | 6.2 µM
18 | CC(C)(C)CC[C@H](c1ccc(C(=O)NCCC(=O)O)cc1)N1C(=O)C(c2cccc(F)c2)=NC1(C)C [Example 8] | 4.9 µM
19 | CC(C)CC1(C)N=C(c2cccc(F)c2)C(=O)N1[C@H](CCC(C)(C)C)c1ccc(C(=O)NCc2nn[nH]n2)cc1 (some centres unmarked) [Example 6] | 3.4 µM
20 | CC(C)(C)CC[C@H](c1ccc(C(=O)NCCC(=O)O)cc1)N1C(=O)C(c2cc(Cl)cc(Cl)c2)=NC1(C)C [Example 1] | 0.8 µM
